Measured values taken from patent publication US9139546B2, “Tri-aryl/heteroaromatic cannabinoids and use thereof” (priority 2007, dated 2015).

Legend:
CXCL-8 = CXCL-8 level in supernatant of TNF-α treated A549 cells (multiplex bead immunoassay); type: cell-based, human; conditions: A549, 10 ng/mL TNF-α, 18 hours
Protocol: (§1) Human lung adenocarcinoma cell line A549 (alveolar type II epithelial-like) cells (ATCC, Manassas, Va.) were maintained in growth media consisting of DMEM supplemented with 10% heat-inactivated fetal calf serum, 2 mM L-glutamine, 100 U/ml penicillin, and 100 μg/ml streptomycin.
(§2) One day prior to treatment, A549 cells were seeded in 24 well culture plates at 6×10^4 cells/well in 1 mL of DMEM containing 1% FCS. On the day of treatment, media was aspirated. Following PBS wash, 1 mL of media containing 1% FCS, 10 ng/mL TNF-α, and varying concentrations of test compounds was added. Samples were collected at 18 hours and immediately transferred to −80° C. until the day of analysis.
(§3) Levels of IL-6 and CXCL-8 were measured in cell culture supernatant using the Multiplex Bead Immunoassay Kit (Biosource, Camarillo, Calif.) paired with the Luminex® 200™ System. Standard solutions were prepared by serial dilution in a 50% media, 50% buffer solution so that they were in the same matrix as the samples. Standards and samples were mixed with a solution containing beads coated with capture antibodies specific for IL-6 and CXCL-8. Each capture antibody is bound to a specific bead population with a known internal fluorescence. The Luminex system can differentiate between internal fluorescence of beads allowing detection of multiple analytes in the same well. Following overnight incubation to allow complexation of protein with capture antibodies, wells were washed and beads resuspended in assay buffer. Biotinylated reporter antibodies specific for IL-6 and CXCL-8 were added and incubated for 1.5 hours. Unbound antibodies were removed by washing, and Streptavidin-Phycoerythrin (PE) was added and incubated 30 minutes. Streptavidin binds to biotin on the reporter antibodies. Unbound reagents were removed and samples were analyzed by the Luminex system. This system utilizes a flow cytometry system and lasers capable of exciting the internal dyes of the beads and PE. The machine separates signals from beads with different internal fluorescence and measures fluorescence intensity from PE bound to these beads through protein-antibody interactions. This fluorescence intensity is reported as the median of 100 beads per cytokine in each well. Concentrations were interpolated by fitting fluorescence intensity from unknowns to the standard curves.
(§4) Cells treated with the pro-inflammatory cytokine TNF-α increase production of IL-6 and CXCL-8 when compared to cells not treated with TNF-α. Cells treated with anti-inflammatory compounds block the inflammatory effect of TNF-α and produce IL-6 and CXCL-8 levels similar to cells that are not treated with TNF-α.

human CB2 receptor = human CB2 receptor (Homo sapiens (Human), UniProt P34972); assay: Receptor binding assay, CB2 ([3H]CP 55,940 displacement); conditions: for Ki: as repeated in the anti-inflammatory table, read-out: CB-2 Ki; for CB1/CB2: ratio of Ki CB-1 to Ki CB-2
Protocol: (§5) The assays were carried out in 96 well plates obtained from Millipore, Inc. fitted with glass fiber filters (hydrophilic, GFC filters) having a pore size of 1.2μ. The filters were soaked with 0.05% polyethyleneimine solution and washed 5× with deionized water prior to carrying out the assays. The filtrations were carried out on a 96 well vacuum manifold (Millipore Inc.), the filters punched out with a pipette tip directly into scintillation vials at the end of the experiment and vials filled with 5 ml scintillation cocktail Ecolite (+) (Fisher Scientific). Counting was carried out on a Beckmann Scintillation Counter model LS6500. Drug solutions were prepared in DMSO and the radioligand was dissolved in ethanol.
(§6) 50 mM TRIS-HCl, 5 mM MgCl2, 2.5 mM EDTA, 0.5 mg/ml fatty acid free bovine serum albumin, pH 7.4.
(§7) The membranes were filtered and the filters washed 7× with 0.2 ml ice-cold incubation buffer and allowed to air dry under vacuum.
(§8) Final data are presented as Ki±S.E.M. of n≧3 experiments.

human CB1 receptor = human CB1 receptor (Homo sapiens (Human), UniProt P21554); assay: Receptor binding assay, CB1 ([3H]CP 55,940 displacement); conditions: as repeated in the anti-inflammatory table; read-out: CB-1 Ki
Chain of human CB1 receptor (P21554 whole entry): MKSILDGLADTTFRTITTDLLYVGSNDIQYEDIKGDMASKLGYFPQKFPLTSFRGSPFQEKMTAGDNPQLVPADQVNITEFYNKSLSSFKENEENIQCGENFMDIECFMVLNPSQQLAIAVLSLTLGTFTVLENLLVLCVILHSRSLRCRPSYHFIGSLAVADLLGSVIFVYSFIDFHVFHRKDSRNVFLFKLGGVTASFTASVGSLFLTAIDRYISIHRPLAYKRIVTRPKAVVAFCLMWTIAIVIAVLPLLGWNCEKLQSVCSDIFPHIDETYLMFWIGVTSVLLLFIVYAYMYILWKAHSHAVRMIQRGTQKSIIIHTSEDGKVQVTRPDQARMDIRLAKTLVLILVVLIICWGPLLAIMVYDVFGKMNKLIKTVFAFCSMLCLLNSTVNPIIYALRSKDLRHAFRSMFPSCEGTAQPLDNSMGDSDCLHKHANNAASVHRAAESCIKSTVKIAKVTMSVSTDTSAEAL
Protocol: as §5, §6, §7, §8

NF-κB = NF-κB SEAP reporter assay in TNF-α treated A549 cells; type: cell-based; conditions: Homo sapiens, read-out: NF-κB Reduction; for inhibition at 0.1 µM: A549, 18 h
Protocol: as §1
The plasmid pNF-κB-SEAP-NPT was kindly provided by Dr. Y. S. Kim of the Seoul National University. This plasmid contains a secreted alkaline phosphatase (SEAP) reporter gene coupled with the κB response element. Upon activation, NF-κB translocates to the nucleus and binds to the κB response element causing transcriptional activation. This activation drives production of the SEAP reporter, which is secreted into the cell culture supernatant where it can be measured. The neomycin phosphotransferase (NPT) region of the plasmid provides resistance to the antibiotic G-418.
A549 cells were stably transfected with pNF-κB-SEAP-NPT using GeneJammer Transfection Reagent (Stratagene, La Jolla, Calif.) per manufacturer's protocol. G-418 (500 μg/ml) was added 24 hrs after transfection to select for stable transfection of NF-κB. Resistant colonies were selected and maintained in growth media supplemented with 500 μg/ml G-418.
Previous experiments have shown A549 cells respond to the pro-inflammatory cytokine TNF-α by activation of the pro-inflammatory transcription factor, NF-κB. This effect is dose dependent with the maximum effect seen at 10 ng/mL TNF-α. Compounds with anti-inflammatory activity can be used to inhibit this activation of NF-κB.
One day prior to treatment, transfected cells were seeded in 24 well culture plates at 6×10^4 cells/well in 1 mL of DMEM containing 1% FCS. On the day of treatment, media was aspirated. Following PBS wash, 1 mL of media containing 1% FCS, 10 ng/mL TNF-α, and varying concentrations of test compounds was added. Cell culture supernatant was collected at 18 hours. SEAP production was measured in 50 μL of supernatant using the Great EscAPe™ chemiluminescence kit (Clontech, Mountain View, Calif.). Briefly, samples were incubated at 65° C. for 30 minutes to inactivate endogenous alkaline phosphate. Following a 5-minute equilibration with assay buffer, chemiluminescent substrate and enhancer was added. Chemiluminescence was measured after 10 minutes. Higher levels of chemiluminescence result from increased SEAP production and correspond to NF-κB activity. Compounds capable of inhibiting NF-κB activation due to TNF-α are determined by a reduction in chemiluminescence values when cells are treated with TNF-α and test compound versus cells treated with TNF-α alone.

CCL-2 = CCL-2 reduction in TNF-α treated A549 cells; type: cell-based, human; conditions: A549, 10 ng/mL TNF-α
[1] = tested on: DU-145 prostate cancer cells; assay: Anti-cancer activity, WST-8 cell viability, DU-145; type: cell-based; conditions: Homo sapiens, DU-145, 18 h, read-out: DU-145 prostate EC50 (μM)
Protocol: (§9) A representative group of compounds (shown below) was tested for anti-cancer activity against human lung (DMS-135 and H69AR), prostate (DU-145), colorectal (HCT-15), and pancreatic (BxPC-3) cancer cell lines using the methodology described below, providing results shown in Table 3.
(§10) Human cancer cells DU-145, DMS-135, H69AR, HCT-15, and BxPC-3 (American Type Culture Collection, ATCC) were cultured in supplemented media according to the recommendations of the supplier. Cells lines were plated in 96-well flat-bottom plates at 70% confluency in a 100 μl total volume of supplemented media as indicated, and incubated overnight at 37° C. to allow for adherence. The cultures were inoculated with escalating amounts of drug and cell death was analyzed at 18 hours, using the BioTek Synergy 2 Multidetection Microplate Reader. The percentage of viable cells present in the culture at each time point was calculated by comparing the absorbance value at 450 nm from the WST-8 assay (Pojindo Molecular Technologies) for each condition with untreated control cells.

[2] = tested on: DMS-135 lung cancer cells; assay: Anti-cancer activity, WST-8 cell viability, DMS-135; type: cell-based; conditions: Homo sapiens, 18 h, read-out: DMS-135 lung EC50 (μM)
Protocol: as §9, §10

[3] = tested on: BxPC-3 pancreatic cancer cells; assay: Anti-cancer activity, WST-8 cell viability, BxPC-3; type: cell-based; conditions: Homo sapiens, BXPC-3, 18 h, read-out: BxPC-3 pancreatic EC50 (μM)
Protocol: as §9, §10

IL-6 = IL-6 level in supernatant of TNF-α treated A549 cells (multiplex bead immunoassay); type: cell-based, human; conditions: 100 nM compound; A549, 10 ng/mL TNF-α, 18 hours
Protocol: as §1, §2, §3, §4

[4] = tested on: HCT-15 colorectal cancer cells; assay: Anti-cancer activity, WST-8 cell viability, HCT-15; type: cell-based; conditions: Homo sapiens, HCT-15, 18 h, read-out: HCT-15 colorectal EC50 (μM)
Protocol: as §9, §10

H69AR lung cancer cells = assay: Anti-cancer activity, WST-8 cell viability, H69AR; type: cell-based; conditions: Homo sapiens, 18 h, read-out: H69AR lung EC50 (μM)
Protocol: as §9, §10

How did the “CXCL-8 Reduction” value (CXCL-8; 100 nM compound) turn out when `Cc1cccc(-c2c(O)cc(C(=O)c3ccccc3)cc2O)c1` [Compound 26, (2,6-Dihydroxy-3′-methyl-biphenyl-4-yl)-phenyl-methanone] was run?
The value was 59 ± 5%.

And the Ki (human CB2 receptor)?
Its Ki is 159 ± 2.92 nM.

What about the CB1/CB2 (human CB2 receptor) of the same compound?
The CB1/CB2 was 6.18.

What about the Ki (human CB1 receptor) of the same compound?
Its Ki is 983 nM.

And the inhibition at 0.1 µM (NF-κB)?
The inhibition at 0.1 µM was 67 ± 9%.

And the “CCL-2 Reduction” value (CCL-2; 100 nM compound)?
Its value is 61 ± 19%.

What does the source list for `COc1cc(C(=O)c2ccccc2)cc(O)c1-c1cccc(C)c1` [Compound 27, (2-Hydroxy-6-methoxy-3′-methyl-biphenyl-4-yl)-phenyl-methanone]?
CXCL-8 Reduction (CXCL-8; 1 nM compound): 50%; CXCL-8 Reduction (CXCL-8; 10 nM compound): 27 ± 15%; Ki (human CB2 receptor): 225 nM; CB1/CB2 (human CB2 receptor): 4.44; Ki (human CB1 receptor): > 1000 nM; inhibition at 0.001 µM (NF-κB; 1 nM compound, A549, 10 ng/mL TNF-α, 18 hours): 45%; inhibition at 0.01 µM (NF-κB; 10 nM compound, A549, 10 ng/mL TNF-α, 18 hours): 38 ± 10%; CCL-2 Reduction (CCL-2; 10 nM compound): 32 ± 9%

For `COc1cc(C(=O)c2ccccc2)cc(O)c1-c1cc(Cl)cc(Cl)c1` [Compound 29, (3′,5′-dichloro-2-hydroxy-6-methoxybiphenyl-4-yl)(phenyl)methanone], which EC50 [1] is on record?
Its EC50 is 1.5 µM.

What about the EC50 [2] of the same compound?
Its EC50 is 2.8 µM.

What about the “CXCL-8 Reduction” value (CXCL-8; 100 nM compound) of the same compound?
Its value is <10%.

And the Ki (human CB2 receptor)?
Its Ki is 4.77 nM.

What about the CB1/CB2 (human CB2 receptor) of the same compound?
Its CB1/CB2 is 209.

What about the Ki (human CB1 receptor) of the same compound?
The Ki was > 1000 nM.

And the EC50 [3]?
The EC50 was 9.3 µM.

And the inhibition at 0.1 µM (NF-κB)?
The inhibition at 0.1 µM was 50%.

What about the “IL-6 Reduction” value (IL-6) of the same compound?
The value was <5%.

What about the EC50 [4] of the same compound?
The EC50 was 2.9 µM.

And the EC50 (H69AR lung cancer cells)?
Its EC50 is 1.3 µM.
